The source of these data is patent publication US20190030046A1, “USE OF PURE COMPOUNDS EXTRACTED FROM ANTRODIA CAMPHORATA” (priority 2016, published 2019).

The nature of experiment [1]: HFD-induced diabetic mice: absolute tissue weight, body weight, food intake. It is filed as in vivo, C57BL/6J mice. To be noted: 4 weeks. From the text: (§1) The difference indicates the daily food intake.
The nature of experiment [2]: HFD-induced diabetic mice: liver lipids. The following applies: 4 weeks. The experiment is classed as in vivo, C57BL/6J mice.
Experiment [3] is described as follows: HFD-induced diabetic mice: histopathology (H-E) of epididymal white adipose and liver tissue. It is filed as in vivo, C57BL/6J mice. The following applies: epididymal white adipose, 4 weeks. The method, then:
as §1
Examination was performed for parts of EWAT (epididymal white adipose) and liver tissue specimens collected. The specimens above were soaked in formalin and neutral buffered solution and embedded in paraffin. Parts therein (8 μm) were cut and stained with hematoxylin and eosin. Images were photographed by a microscope (Olympus BX51, Olympus, Tokyo, Japan). Please refer to FIGS. 3(A) and 3(B).

The nature of experiment [4]: HFD-induced diabetic mice: fasting blood glucose and biochemical indexes. The following applies: 4 weeks; for Blood glucose: 12 h fasted HFD mice; for Insulin / Leptin: blood.
Protocol: The control group and HFD group contained 10% and 45% fat intake, respectively. The HFD mice were subdivided into 6 groups (9 per group) followed by 8-week induction. […] During the experiment, all mice were fasted overnight, and blood samples were collected from the retro-orbital sinus. Following four-week treatment and feeding, the food was removed, and the mice were fasted for 12 h and then sacrificed. Tissue samples required were collected from the mice and weighted. Some of the tissue samples were immediately stored at −80° C. and frozen for subsequent target gene analysis. Plasma samples were collected via centrifugation of whole blood at 1600×g for 15 min at 4° C., followed by plasma separation within 30 min. Some plasma samples obtained were used for TG and TC analysis. The metabolic parameters, including body weight, weight gain, and food intake, were performed as follows. Body weight was daily measured throughout the study. Body weight gain is considered as the difference between one day and the next day. The total weight of food intake was daily measured, followed by weighing the amount of remaining feed after 24 h. The difference indicates the daily food intake.
One part of the forgoing blood samples collected from the retro-orbital sinus of 12 h fasted mice was immediately used for analysis of glucose levels. The other part was used for analysis of blood TG, TC, free fatty acids, blood insulin, leptin, and adiponectin levels. Blood glucose levels were determined by a glucose analyzer (Model 1500 sidekick glucose analyzer, YSI). Plasma triglycerides (TG), total cholesterol (TC), and free fatty acids (FFA) were determined using commercial kits in accordance with manufacturer's instructions (Triglycerides-E test, Cholesterol-E test, and FFA-C test; Wako Pure Chemical, Osaka, Japan). Insulin and leptin levels were measured by enzyme-linked immunosorbent assay (ELISA) (mouse insulin ELISA kit, Mercodia, Uppsala, Sweden; mouse leptin ELISA kit, Morinaga, Yokohama, Japan).
The next experiment concerns G6-Pase. Put plainly: Semiquantitative RT-PCR in liver tissue: G6-Pase. It is filed as in vivo, C57BL/6J mice. To be noted: vs HF; HF+Metf, 0.3 g/kg/day oral, 4 weeks. As to the method:
as §1
(§2) Total RNA from liver tissue was isolated with a Trizol Reagent (Molecular Research Center, Inc., Cincinnati, Ohio, USA) according to the manufacturer's instructions. The integrity of the extracted total RNA was examined by 2% agarose gel electrophoresis, and the RNA concentration was determined by […] ultraviolet (UV) light absorbency at 260 nm and 280 nm (Spectrophotometer U-2800A, Hitachi). The total RNA (1 μg) was reverse transcribed to cDNA, and 5 μL Moloney murine leukemia virus reverse transcriptase (TEpicentre, Madison, Wis., USA). The PCR was performed in a final 25 μL containing 1 U Blend Taq-Plus (TOYOBO, Japan), 10 μL of the RT cDNA product, 10 μM of each forward (F) and reverse (R) primer, 75 mM Tris-HCL (pH 8.3) containing 1 mg/L Tween 20 (pH 8.3, also known as polyoxyethylene sorbitan monolaurate), 2.5 mM dNTP (deoxy-ribonucleoside triphosphate), and 2 mM MgCl2 (magnesium chloride). The PCR products were analyzed by 2% agarose gel and stained with ethidium bromide.

The subject of a further experiment is 11β-HSD1. In words: Semiquantitative RT-PCR in liver tissue: 11β-HSD1. It is filed as in vivo, C57BL/6J mice. The following applies: vs HF; HF+Metf, 0.3 g/kg/day oral, 4 weeks. As to the method: as §1, §2
Another experiment deals with SREBP-1c. Put plainly: Semiquantitative RT-PCR in liver tissue: SREBP-1c. It is filed as in vivo, C57BL/6J mice. To be noted: vs HF; HF+Metf, 0.3 g/kg/day oral, 4 weeks. As to the method:
as §1, §2

In the next experiment the test system is aP2. Put plainly: Semiquantitative RT-PCR in liver tissue: aP2. It is filed as in vivo, C57BL/6J mice. The following applies: vs HF; HF+Metf, 0.3 g/kg/day oral, 4 weeks. The method, then:
as §1, §2

Another experiment relates to GPAT. Put plainly: Semiquantitative RT-PCR in liver tissue: GPAT. It is filed as in vivo, C57BL/6J mice. The following applies: vs HF; HF+Metf, 0.3 g/kg/day oral, 4 weeks. As to the method: as §1, §2
For the next experiment, the system named is SREBP-2. In words: Semiquantitative RT-PCR in liver tissue: SREBP-2. The following applies: vs HF; HF+Metf, 0.3 g/kg/day oral, 4 weeks. The experiment is classed as in vivo, C57BL/6J mice. The method, then:
as §1, §2

The next experiment deals with CPT-1a. Put plainly: Semiquantitative RT-PCR in liver tissue: CPT-1a. It is filed as in vivo, C57BL/6J mice. To be noted: vs HF; HF+Metf, 0.3 g/kg/day oral, 4 weeks. As to the method: as §1, §2
Another experiment concerns PPARα. In words: Western blot of PPARα protein in liver of HFD mice. The following applies: compared to HF; HF+Metf, 0.3 g/kg/day oral, 4 weeks.
Experiment [5] relates to membrane GLUT4. In words: Western blot of skeletal muscle membrane GLUT4 in HFD mice. The following applies: compared to HF; HF+Metf, 0.3 g/kg/day oral, 4 weeks.
Protocol: (§6) The HFD mice were subdivided into 6 groups (9 per group) followed by 8-week induction. […] Following four-week treatment and feeding, the food was removed, and the mice were fasted for 12 h and then sacrificed. Tissue samples required were collected from the mice and weighted. Some of the tissue samples were immediately stored at −80° C. and frozen for subsequent target gene analysis. Plasma samples were collected via centrifugation of whole blood at 1600×g for 15 min at 4° C., followed by plasma separation within 30 min.
(§7) We determined PPARα and FAS protein expression levels in liver tissue, PPARγ and FAS protein expression levels in adipose tissue, and membrane GLUT4 expression in skeletal muscle adipose. The total membrane fraction was collected with the buffer and determined as previously described. The membrane GLUT4, p-AMPK, and total AMPK protein content were determined by Western Blotting as previously described.
Another experiment concerns FAS. In words: Western blot of FAS protein in liver and adipose tissue of HFD mice. To be noted: compared to HF; HF+Metf, 0.3 g/kg/day oral, 4 weeks.
The next experiment concerns PPARγ. In words: Western blot of PPARγ protein in liver and adipose tissue of HFD mice. The following applies: compared to HF; HF+Metf, 0.3 g/kg/day oral, 4 weeks. In general terms: Immunoblotting shows a protein as a band on a membrane.
In the next experiment the test system is phospho-AMPK(Thr172). Put plainly: Western blot of phospho-AMPK(Thr172)/total-AMPK in skeletal muscle and liver of HFD mice. To be noted: compared to HF; HF+Metf, 0.3 g/kg/day oral, 4 weeks.
The subject of experiment [6] is membrane GLUT4. Put plainly: Membrane GLUT4 protein expression in C2C12 myotube cells (Western blot). It is filed as cell-based. The following applies: 25 min. As to the method: (§3) In the present invention, C2C12 skeletal myoblasts (ATCC, CRL-1772) were maintained in growth media consisting of Dulbecco's modified Eagle's medium (DMEM) (Gibco BRL) and supplemented with 10% Fetal Bovine Serum (FBS) (Hyclone) and 100 U/mL penicillin/100 μg/mL streptomycin (Gibco BRL), and split 1:4 using 0.05% trypsin when 80% confluent. Myoblasts were diluted and placed in a 9 cm-diameter dish. Cells were cultured to achieve 80%-90% confluency and then the growth media was changed as 2% FBS/DMEM every 24 h for 5-7 days.
(§4) In experiments for determining GLUT4 and p-Akt(Ser473)/t-Akt proteins in tubes, differentiated C2C12 cells were serum-starved in DMEM/BSA for 2 h at 37° C. prior to incubation with MeOH crude extract (at 20, 100, 200, and 500 μg/mL), test compounds (at 1, 5, 10, and 25 μg/mL), or vehicle for 25 min, or 100 nM insulin for 25 min.
(§5) The cultures obtained by cell culture above were centrifuged, and the resulting pellet was resuspended in a homogenization buffer. The forgoing steps were performed with a filtration membrane. Protein concentrations were measured using a BCA assay (Pierce). Equal amounts of protein were diluted four times in SDS sample buffer, and subjected to SDS PAGE and Western blotting with antibodies specific for Akt, p-Akt Ser^473, and GLUT4. Density blotting analysis was performed using Alpha Easy FC software.

For experiment [7], the system named is phospho-Akt(Ser473)/total-Akt(Ser473). Put plainly: phospho-Akt(Ser473)/total-Akt in C2C12 myotube cells (Western blot). It is filed as cell-based. The following applies: 25 min. As to the method: as §3, §4, §5
[8] abbreviates: HFD mice, HF+Feno, 250 mg/kg/day oral.
Setting [9] is: HFD mice, HF+Metf, 300 mg/kg/day oral.
Setting [10] is: plasma, HFD mice, HF+Metf, 300 mg/kg/day oral.

Protocol for phospho-AMPK(Thr172): as §6, §7

For `CC(C)OC(=O)C(C)(C)Oc1ccc(C(=O)c2ccc(Cl)cc2)cc1` [Feno, fenofibrate, reference compound], in experiment [1] (HF+Feno, 250 mg/kg/day oral), the Final body weight is 26.04 g, the Food intake is recorded as 2.05 g/day/mouse and the Weight gain was found to be 0.46 g. In experiment [2] (HF+Feno, 250 mg/kg/day oral), the “Liver lipids: Total lipid” value is recorded as 62.0 mg/g and the Liver lipids: Triacylglycerol was found to be 48.6 µmol/g. Further, the Adipocyte area in [3] (HF+Feno, 0.25 g/kg/day oral) is reported as 6270.5 ± 165.4 μm^2. In addition, the Blood glucose in experiment [4] (HF+Feno, 250 mg/kg/day oral) came out at 86.56 mg/dL. Moreover, in experiment [4] (setting [8]), the “Plasma FFA” value is 0.86 meq/L, the Insulin stood at 2.402 µg/L and the Leptin was 7.507 ng/mL. Also, in experiment [4] (plasma, HFD mice, HF+Feno, 250 mg/kg/day oral), the TG is on record as 83.35 mg/dL.

Regarding `CN(C)C(=N)N=C(N)N` [Metf, metformin, reference compound], the Absolute tissue weight: Visceral fat in [1] (EWAT plus RWAT, HF+Metf, 300 mg/kg/day oral) was found to be 662 mg. In experiment [1] (HF+Metf, 300 mg/kg/day oral), this compound gave an Absolute tissue weight: Brown adipose tissue (BAT) of 134 mg, an Absolute tissue weight: Epididymal white adipose tissue (EWAT) of 482 mg, an Absolute tissue weight: Liver of 1960 mg and an Absolute tissue weight: Mesenteric white adipose tissue (MWAT) of 198 mg. For the same compound, in [1] (HF+Metf, 300 mg/kg/day oral), the Absolute tissue weight: Retroperitoneal white adipose tissue (RWAT) was determined as 180 mg, the Absolute tissue weight: Spleen was found to be 81 mg, the Final body weight amounted to 26.35 g and the Food intake is recorded as 2.25 g/day/mouse. This compound displayed a Weight gain in experiment [1] (HF+Metf, 300 mg/kg/day oral) of 0.52 g. In addition, in [2] (HF+Metf, 300 mg/kg/day oral), the “Liver lipids: Total lipid” value came to 61.1 mg/g and the Liver lipids: Triacylglycerol was found to be 49 µmol/g. The compound further registered an Adipocyte area in experiment [3] (HF+Metf, 0.3 g/kg/day oral) of 6919.5 ± 195.1 μm^2. In addition, the “G6-Pase mRNA expression level in liver” value with G6-Pase is “decreased”. Moreover, in the experiment with 11β-HSD1, the “11β-HSD1 mRNA expression level in liver” value is “decreased”. For the same compound, the “SREBP-1c mRNA expression level in liver” value in the experiment with SREBP-1c was “decreased”. Moreover, the “aP2 mRNA expression level in liver” value with aP2 is “decreased”. In the experiment on GPAT, the “GPAT mRNA expression level in liver” value is “decreased”. Besides, in the experiment with SREBP-2, the “SREBP-2 mRNA expression level in liver” value is “decreased”. Besides, in the experiment on CPT-1a, the “CPT-1a mRNA expression level in liver” value is on record as “increased”. For the same compound, in the experiment with PPARα, the “PPAR protein expression level in liver” value was “significantly increased”. Further, in the experiment on membrane GLUT4 [5], the “membrane expression level of GLUT4 in skeletal muscle” value is reported as “significantly increased”. For the same compound, in the experiment with FAS, the “FAS protein expression level in adipose tissue” value is “significantly decreased” and the “FAS protein expression level in liver” value is “significantly decreased”. In the experiment with PPARγ, the “PPARγ protein expression level in adipose tissue” value is listed as “significantly decreased” and the “PPARγ protein expression level in liver” value was “significantly decreased”. This compound yielded a Blood glucose in experiment [4] (HF+Metf, 300 mg/kg/day oral) of 87.33 mg/dL. Moreover, in experiment [4] (setting [9]), the “Plasma FFA” value is 0.85 meq/L, the Insulin came out at 2.467 µg/L and the Leptin turned out to be 7.359 ng/mL. In experiment [4] (setting [10]), this compound registered a TC of 117.20 mg/dL and a TG of 82.07 mg/dL. For the same compound, in the experiment with phospho-AMPK(Thr172), the “expression level of p-AMPK/t-AMPK proteins in liver” value was “significantly increased” and the “expression level of phospho-AMPK/total-AMPK in skeletal muscle” value is “significantly increased”.

Consider `C=C(CC[C@@H](C)[C@H]1CC[C@H]2C3=C(C(=O)C[C@]12C)[C@@]1(C)CC[C@@H](O)[C@](C)(O)[C@@H]1C[C@@H]3O)C(C)C(=O)O` (stereo partly shown) [AnK, Antcin K], for which the “protein expression level of membrane GLUT4” value in the experiment on membrane GLUT4 [6] (5, 10, and 25 μg/mL) is listed as “increase”. Moreover, the “protein expression level of phospho-Akt(Ser473)/total-Akt(Ser473)” value in experiment [7] (AnK 10 and 25 μg/mL) is on record as “increase”.

As for insulin [reference compound], the “protein expression level of membrane GLUT4” value with membrane GLUT4 [6] (100 nM insulin) was “increase”. The “protein expression level of phospho-Akt(Ser473)/total-Akt(Ser473)” value in experiment [7] (100 nM insulin) is “increase”.
